# According to patent US8604212B2, “Anti-shock agent comprising diaminotrifluoromethylpyridine derivative” (Ishihara Sangyo Kaisha, Ltd., priority 2009, dated 2013):
# Test system: mouse models with septic shock, the onset of which was peritonitis triggered by the cecal puncture
# Assay: Therapeutic effect on mouse models with septic shock, the onset of which was peritonitis triggered by the cecal puncture (viability test)
# Format: in vivo
# Conditions: for surviving rate: female BALB/c mice
# Description: Therapeutic effects of N-(2-ethylsulfonylamino-5-trifluoromethyl-3-pyridyl)cylohexanecarboxamide sodium salt monohydrate (hereinafter referred to as compound 1) on mouse models with septic shock, the onset of which was peritonitis triggered by the cecal puncture, was examined.
# The compound 1 was used as a drug formulation. The formulation composition (content per one vial) was as follows.
# Age: 7 weeks old when purchased and 8 weeks old when tested
# The mice were pre-bred for about a week after purchase and then subjected to a test at about 8 weeks old. Breeding in the entire breeding period was carried out in an isolator placed in a large animal room. Ten mice in each group were accommodated in a polycarbonate cage throughout the test period, and they were freely fed on commercially available complete feed pellet (MF, manufactured by O. B. S.) and tap water subjected to activated carbon filtration (with use of a feed water bottle) throughout the breeding period. From the mice, mice which were healthily grown during the pre-breeding period were selected. Mice were randomly selected from the above selected mice and delivered to the respective groups one by one in the order of the animal number. The animal number was put in the order of put into a cage after the grouping.
# Preparation of the drug was carried out immediately before the induction operation, and administration was carried out by using the prepared liquid for administration. Japanese Pharmacopoeia 5% glucose was injected to a formulated product containing 100 mg of the compound 1 to completely dissolve the compound 1, and a liquid for administration at the maximum dose was prepared by diluting with Japanese Pharmacopoeia 5% glucose, and a liquid for administration at a medium dose and a liquid for administration at a low dose were prepared by stepwise dilution of the liquid for administration at the maximum dose with Japanese Pharmacopoeia 5% glucose. For the non-treated group, Japanese Pharmacopoeia 5% glucose as a medium alone was prepared. Immediately after the induction, 4 hours later, 8 hours later and 12 hours later, the liquid was repeatedly administered subcutaneously to the dorsal neck to maintain the blood concentration. The liquid was administered in a volume of 10 ml/kg for each group.
# Mice were anesthetized with gas-oxygen-fluothane, and the corpus 8 mm from the cecal apex was ligated through an abdominal incision, one spot in the apex was punctured and transfixed with a 22 G needle, and after leakage of cecal contents was confirmed, the cecum was completely replaced in the abdomen and the abdomen was closed.
# Viability test was carried out for 3 days from immediately after the induction, and the results were summarized every 24 hours.
# Employing the non-treated group as a control, comparison among groups of a group given with 0.1 mg/kg of the compound 1, a group given with 1 mg/kg of the compound 1 and a group given with 10 mg/kg of the compound 1 was carried out.
# Viability test results: animals which died in 0 to 24 hours were scored 1, animals which died in 24 to 48 hours were scored 2, animals which died in 48 to 72 hours were scored 3, and animals which survived 72 hours or more were scored 4, and the obtained data were used.
# Comparison among groups was carried out by Shirley-Williams' multiple comparison test.
structure (smiles),measurement,setting,value
"CCS(=O)(=O)Nc1ncc(C(F)(F)F)cc1NC(=O)C1CCCCC1.O.[Na] [Compound 1, N-(2-ethylsulfonylamino-5-trifluoromethyl-3-pyridyl)cylohexanecarboxamide sodium salt monohydrate]",surviving rate,"0.1 mg/kg x 4 times subcutaneous, 24 hr after induction of septic shock model",20%
same,surviving rate,"0.1 mg/kg x 4 times subcutaneous, 48 hr after induction of septic shock model",0%
same,surviving rate,"0.1 mg/kg x 4 times subcutaneous, 72 hr after induction of septic shock model",0%
same,surviving rate,"1 mg/kg x 4 times subcutaneous, 24 hr after induction of septic shock model",40%
same,surviving rate,"1 mg/kg x 4 times subcutaneous, 48 hr after induction of septic shock model",10%
same,surviving rate,"1 mg/kg x 4 times subcutaneous, 72 hr after induction of septic shock model",10%
same,surviving rate,"10 mg/kg x 4 times subcutaneous, 24 hr after induction of septic shock model",90%
same,surviving rate,"10 mg/kg x 4 times subcutaneous, 48 hr after induction of septic shock model",50%
same,surviving rate,"10 mg/kg x 4 times subcutaneous, 72 hr after induction of septic shock model",50%
same,improvement in the surviving rate versus non-treated group (Shirley-Williams' multiple comparison test),"administration of 10 mg/kg, P<0.001",improvement in the surviving rate with statical significance
